# Measured values taken from US12569464B2, “Protein-protein interaction inducing technology” (Arvinas Operations, Inc., priority 2016, dated 2026).
# Legend:
# Androgen Receptor = target: T1, Androgen Receptor (Homo sapiens, UniProt P10275); test: Cell-based ligand (R1881) displacement assay, binary binding to AR; conditions: read-out: binary binding potency IC50^AR in cells
# T1 construct: expressed in transfected cells; host or cells: HEK293
# T1 sequence (P10275 1-920): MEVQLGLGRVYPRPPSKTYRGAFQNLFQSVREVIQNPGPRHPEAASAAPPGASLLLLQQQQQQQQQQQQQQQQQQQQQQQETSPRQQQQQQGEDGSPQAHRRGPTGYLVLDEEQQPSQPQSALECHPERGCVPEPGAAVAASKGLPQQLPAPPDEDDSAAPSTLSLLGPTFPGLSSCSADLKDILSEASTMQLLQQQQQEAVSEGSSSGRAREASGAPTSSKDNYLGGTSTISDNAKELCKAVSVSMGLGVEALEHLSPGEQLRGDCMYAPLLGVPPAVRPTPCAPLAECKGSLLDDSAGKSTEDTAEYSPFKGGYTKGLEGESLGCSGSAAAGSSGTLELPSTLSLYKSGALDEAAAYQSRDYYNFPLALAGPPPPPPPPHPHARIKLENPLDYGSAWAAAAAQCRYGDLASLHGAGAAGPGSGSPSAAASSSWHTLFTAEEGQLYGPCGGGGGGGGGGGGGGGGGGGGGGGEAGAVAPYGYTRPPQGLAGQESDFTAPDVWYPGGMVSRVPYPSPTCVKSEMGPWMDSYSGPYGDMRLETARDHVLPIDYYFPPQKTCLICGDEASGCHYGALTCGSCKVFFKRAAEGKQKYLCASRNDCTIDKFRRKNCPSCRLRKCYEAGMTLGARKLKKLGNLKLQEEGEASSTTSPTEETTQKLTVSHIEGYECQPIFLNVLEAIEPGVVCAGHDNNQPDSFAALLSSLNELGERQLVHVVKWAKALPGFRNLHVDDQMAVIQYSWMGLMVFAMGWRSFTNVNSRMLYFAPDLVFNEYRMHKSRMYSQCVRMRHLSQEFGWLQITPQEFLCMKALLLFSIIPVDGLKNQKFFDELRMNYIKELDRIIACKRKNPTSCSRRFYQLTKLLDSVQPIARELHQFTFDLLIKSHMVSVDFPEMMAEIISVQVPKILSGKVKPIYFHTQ
# Description: It is composed of an AR-binding warhead which is connected to a VHL-binding warhead by a linear connector. […] MD simulation of a ternary system composed of AR ligand-binding domain, a ligand and the complex of VHL with elongin B (EB) and elongin C (EC) in the presence of explicit water was performed. The ligand in the simulation is a close analog of the ligand L above and only differs from the ligand L above by having a methyl substitution at the 4-position of the thiazole group.
# (§1) The connector linking the AR-binding warhead and the VHL-binding warhead was systematically probed from 4 to 23 atoms. The AR degradation potency DC50 and the maximum percentage of degradation Dmax of AR in LNCaP cells were measured for each of these compounds. […] The binary binding potency with respect to AR was also measured for some of the compounds by the cell-based ligand (R1881) displacement assay. The ratio α between the AR-binding potency and the degradation potency are calculated when it is possible.
# The experimental protocol is based on reference Gustafson et al. (Angew. Chem. Int. Ed., 54: 9659-9662). HEK293 cells were transiently transfected using Fugene 6 to overexpress wildtype Androgen Receptor. During binding assay, transfected cells were grown in DMEM supplemented with 10% charcoal-stripped FBS. Cells were treated for two hours with the indicated competitor compound in the presence of 0.1 nM ^3H-R1881. Cells were washed in PBS, lysed in 200 ul lysis buffer (2% SDS, 10% Glycerol, 10 mM Tris-HCl [pH 6.8]), and cleared with the addition of 300 ul of 10 mM Tris-HCl (pH 8.0). 300 ul of these lysates were added to 3 mL of Cytoscint (MP Biomedicals), and scintillation counting was performed on a Beckman LS 6000SC instrument. Counts (cpm) were normalized to total protein amount in each sample, as determined via the Pierce BCA Protein Assay Kit (Thermo Scientific) per the manufacturer's instructions.
# AR = target: T2, AR (Homo sapiens, UniProt P10275+P40337, T878A); test: AR degradation in LNCaP cells (androgen receptor ELISA); format: cell-based; conditions: for maximum AR degradation Dmax / DC50 / Dmax: LNCaP cells; for DC50: read-out: AR degradation potency DC50; for Dmax: read-out: maximum AR degradation Dmax
# T2 construct: degradation Dmax of AR in LNCaP cells; endogenous in cells; host or cells: LNCaP
# Description: as §1
# Androgen Receptor ELISA Assay
# The protocols used with VCaP cells are described below. The androgen receptor ELISA assay was performed using PathScan AR ELISA (Cell Signaling Catalog #12850) according to the following assay steps: […]
# T2 sequence (Q15370 whole entry): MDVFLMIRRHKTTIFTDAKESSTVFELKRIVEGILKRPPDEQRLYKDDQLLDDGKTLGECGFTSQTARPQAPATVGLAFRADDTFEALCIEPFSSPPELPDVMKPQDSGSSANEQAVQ
# T2 sequence (P40337 whole entry): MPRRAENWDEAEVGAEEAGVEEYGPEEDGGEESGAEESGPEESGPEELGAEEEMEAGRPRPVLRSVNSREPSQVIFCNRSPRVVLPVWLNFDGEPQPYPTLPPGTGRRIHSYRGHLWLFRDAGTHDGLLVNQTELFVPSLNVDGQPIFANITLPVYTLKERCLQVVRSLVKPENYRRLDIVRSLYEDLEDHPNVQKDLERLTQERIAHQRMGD
# T2 sequence (P10275 whole entry T878A): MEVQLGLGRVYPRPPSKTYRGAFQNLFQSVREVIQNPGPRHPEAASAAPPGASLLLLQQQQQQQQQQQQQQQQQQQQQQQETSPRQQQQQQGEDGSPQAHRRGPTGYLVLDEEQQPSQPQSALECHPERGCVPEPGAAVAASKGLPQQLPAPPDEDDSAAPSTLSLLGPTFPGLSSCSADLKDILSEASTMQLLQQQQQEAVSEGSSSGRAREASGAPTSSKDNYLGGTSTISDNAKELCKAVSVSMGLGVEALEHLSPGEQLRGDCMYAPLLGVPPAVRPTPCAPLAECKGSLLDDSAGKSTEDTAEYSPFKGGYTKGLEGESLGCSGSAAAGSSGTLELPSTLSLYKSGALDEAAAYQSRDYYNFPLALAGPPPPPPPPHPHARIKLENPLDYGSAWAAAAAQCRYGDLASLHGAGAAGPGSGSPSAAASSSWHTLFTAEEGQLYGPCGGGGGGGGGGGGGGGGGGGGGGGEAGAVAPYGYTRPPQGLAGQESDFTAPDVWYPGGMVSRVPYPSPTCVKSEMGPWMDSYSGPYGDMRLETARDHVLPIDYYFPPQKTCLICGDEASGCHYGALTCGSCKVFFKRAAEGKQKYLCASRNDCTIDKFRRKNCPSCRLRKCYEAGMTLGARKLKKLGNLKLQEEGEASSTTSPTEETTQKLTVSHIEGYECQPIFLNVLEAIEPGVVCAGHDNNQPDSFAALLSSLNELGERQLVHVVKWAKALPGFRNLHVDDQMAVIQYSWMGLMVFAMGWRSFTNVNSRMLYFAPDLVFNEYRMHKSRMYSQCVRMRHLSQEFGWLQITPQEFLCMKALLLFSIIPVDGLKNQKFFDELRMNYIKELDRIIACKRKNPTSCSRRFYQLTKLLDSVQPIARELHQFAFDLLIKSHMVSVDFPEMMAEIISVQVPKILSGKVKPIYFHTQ
# T2 sequence (Q15369 whole entry, further chain): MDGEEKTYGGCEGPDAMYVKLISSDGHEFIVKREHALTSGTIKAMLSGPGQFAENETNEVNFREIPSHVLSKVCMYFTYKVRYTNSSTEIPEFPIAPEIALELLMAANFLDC
SMILES,IC50 (Androgen Receptor),ratio α between AR-binding potency IC50 and degradation potency DC50 (AR),maximum AR degradation Dmax (AR),DC50 (AR),Dmax (AR)
Cc1ncsc1-c1ccc(CNC(=O)[C@@H]2C[C@@H](O)CN2C(=O)[C@@H](NC(=O)COCCOCCOCCCCCOc2ccc(N3C(=S)N(c4ccc(C#N)c(C(F)(F)F)c4)C(=O)C3(C)C)cc2)C(C)(C)C)cc1 [Compound 11],1.15 µM,105,60%,0.011 µM,–
Cc1ncsc1-c1ccc(CNC(=O)[C@@H]2C[C@@H](O)CN2C(=O)[C@@H](NC(=O)COCCOCCOCCCOCCOCCOc2ccc(N3C(=S)N(c4ccc(C#N)c(C(F)(F)F)c4)C(=O)C3(C)C)cc2)C(C)(C)C)cc1 [Compound 14],4.95 µM,–,–,0.22 µM,52%
Cc1ncsc1-c1ccc(CNC(=O)[C@@H]2C[C@@H](O)CN2C(=O)[C@@H](NC(=O)COCCOCCOCCCCOCCOCCOc2ccc(N3C(=S)N(c4ccc(C#N)c(C(F)(F)F)c4)C(=O)C3(C)C)cc2)C(C)(C)C)cc1 [Compound 15],3.48 µM,–,–,0.029 µM,58%
Cc1ncsc1-c1ccc(CNC(=O)[C@@H]2C[C@@H](O)CN2C(=O)[C@@H](NC(=O)COCCOCCOCCOCCOCCOCCOc2ccc(N3C(=S)N(c4ccc(C#N)c(C(F)(F)F)c4)C(=O)C3(C)C)cc2)C(C)(C)C)cc1 [Compound 16],1.75 µM,–,–,3 µM,90%
Cc1ncsc1-c1ccc(CNC(=O)[C@@H]2C[C@@H](O)CN2C(=O)[C@@H](NC(=O)COCCOCCCCOCCCCOCCOCCOc2ccc(N3C(=S)N(c4ccc(C#N)c(C(F)(F)F)c4)C(=O)C3(C)C)cc2)C(C)(C)C)cc1 [Compound 17],1.42 µM,–,–,> 3 µM,43%
Cc1ncsc1-c1ccc(CNC(=O)[C@@H]2C[C@@H](O)CN2C(=O)[C@@H](NC(=O)COCCOCCCCCOCCCCCOCCOCCOc2ccc(N3C(=S)N(c4ccc(C#N)c(C(F)(F)F)c4)C(=O)C3(C)C)cc2)C(C)(C)C)cc1 [Compound 18],0.96 µM,<1,47%,> 3 µM,–
